Consider two compounds from PMC3344384 (Chemistry & biology, 2011).

For assay [1], the target named is T1, caspase-6 (Homo sapiens, UniProt P55212).
T1 sequence (P55212 24-179 limits assumed): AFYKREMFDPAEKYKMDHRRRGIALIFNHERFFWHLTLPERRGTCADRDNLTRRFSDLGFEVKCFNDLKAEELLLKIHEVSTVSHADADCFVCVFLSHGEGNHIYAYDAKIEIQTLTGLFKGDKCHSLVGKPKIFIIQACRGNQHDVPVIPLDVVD
T1 sequence (P55212 194-293 limits assumed): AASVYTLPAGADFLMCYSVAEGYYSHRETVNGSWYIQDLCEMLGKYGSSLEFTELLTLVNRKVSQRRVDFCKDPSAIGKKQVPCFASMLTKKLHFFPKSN
Kind of assay: cysteine protease selectivity, caspase-6. Type of assay: biochemical.

The target of assay [2] is USP1/UAF1 (Homo sapiens, UniProt O94782). Kind of assay: gel-based K63-linked diubiquitin cleavage assay, USP1/UAF1. Type of assay: biochemical. Particulars: IC50 USP1/UAF1, K63-linked diubiquitin substrate; NI = no significant inhibition at highest inhibitor concentration of 114 μM.
For assay [3], the target named is USP1/UAF1 (Homo sapiens, UniProt O94782+Q8TAF3). Kind of assay: reversibility of inhibition by rapid dilution. To be noted: incubation at 10 times IC50, 100-fold rapid dilution.
The target of assay [4] is T2, USP5 (Homo sapiens, UniProt P45974).
T2 sequence (P45974 1-858): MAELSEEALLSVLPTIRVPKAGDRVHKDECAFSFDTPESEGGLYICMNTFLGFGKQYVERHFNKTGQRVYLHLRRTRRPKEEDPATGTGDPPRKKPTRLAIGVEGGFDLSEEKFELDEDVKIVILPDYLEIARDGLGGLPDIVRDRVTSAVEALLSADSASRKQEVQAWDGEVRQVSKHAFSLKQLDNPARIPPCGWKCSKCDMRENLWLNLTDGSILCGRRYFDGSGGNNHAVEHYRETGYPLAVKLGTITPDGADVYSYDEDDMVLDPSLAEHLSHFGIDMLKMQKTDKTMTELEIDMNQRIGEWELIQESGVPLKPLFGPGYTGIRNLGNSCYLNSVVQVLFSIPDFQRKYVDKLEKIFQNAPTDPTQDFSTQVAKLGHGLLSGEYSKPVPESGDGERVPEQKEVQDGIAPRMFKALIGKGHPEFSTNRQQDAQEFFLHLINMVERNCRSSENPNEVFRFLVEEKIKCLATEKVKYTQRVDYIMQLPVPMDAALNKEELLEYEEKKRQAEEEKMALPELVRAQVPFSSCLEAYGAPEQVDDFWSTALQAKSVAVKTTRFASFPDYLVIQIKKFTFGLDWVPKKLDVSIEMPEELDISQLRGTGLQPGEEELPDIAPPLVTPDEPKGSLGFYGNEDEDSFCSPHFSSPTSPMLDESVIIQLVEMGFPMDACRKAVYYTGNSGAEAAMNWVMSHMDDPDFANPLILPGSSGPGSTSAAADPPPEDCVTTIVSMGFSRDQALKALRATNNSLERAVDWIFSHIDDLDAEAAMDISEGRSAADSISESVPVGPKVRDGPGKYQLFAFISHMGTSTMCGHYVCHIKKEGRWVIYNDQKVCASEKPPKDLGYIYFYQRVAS
Kind of assay: K63-linked diubiquitin cleavage assay, USP5.

Assay [5] deals with T3, caspase-1 (Homo sapiens, UniProt P29466).
T3 sequence (P29466 120-297 limits assumed): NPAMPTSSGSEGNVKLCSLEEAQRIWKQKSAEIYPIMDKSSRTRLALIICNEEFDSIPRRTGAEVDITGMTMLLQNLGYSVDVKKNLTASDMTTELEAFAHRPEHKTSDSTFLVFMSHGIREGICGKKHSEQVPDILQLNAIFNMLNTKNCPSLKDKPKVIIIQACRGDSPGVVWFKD
T3 sequence (P29466 317-404 limits assumed): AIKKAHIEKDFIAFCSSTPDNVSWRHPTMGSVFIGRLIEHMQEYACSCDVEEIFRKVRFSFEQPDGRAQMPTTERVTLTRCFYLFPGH
Kind of assay: cysteine protease selectivity, caspase-1. Type of assay: biochemical.

Assay [6] concerns the target T4, papain (Carica papaya, UniProt P00784).
T4 sequence (P00784 134-345): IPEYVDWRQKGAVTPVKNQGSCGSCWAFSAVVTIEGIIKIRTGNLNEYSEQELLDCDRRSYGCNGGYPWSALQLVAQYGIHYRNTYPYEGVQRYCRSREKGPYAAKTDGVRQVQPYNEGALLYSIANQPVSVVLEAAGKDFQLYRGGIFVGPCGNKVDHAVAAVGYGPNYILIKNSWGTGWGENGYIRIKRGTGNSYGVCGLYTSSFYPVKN
Kind of assay: cysteine protease selectivity, papain. Type of assay: biochemical.

In assay [7] the target is T5, caspase-3 (Homo sapiens, UniProt P42574).
T5 sequence (P42574 29-175 limits assumed): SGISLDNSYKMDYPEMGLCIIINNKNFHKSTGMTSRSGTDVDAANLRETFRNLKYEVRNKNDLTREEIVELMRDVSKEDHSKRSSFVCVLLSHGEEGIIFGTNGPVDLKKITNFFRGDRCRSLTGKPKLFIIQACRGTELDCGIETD
T5 sequence (P42574 176-277 limits assumed): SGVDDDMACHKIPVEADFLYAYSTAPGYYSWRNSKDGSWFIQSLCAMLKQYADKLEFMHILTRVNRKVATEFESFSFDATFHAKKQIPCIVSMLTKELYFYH
Kind of assay: cysteine protease selectivity, caspase-3. The assay is classed as biochemical.

The target of assay [8] is USP46/UAF1 (Homo sapiens, UniProt P62068). Put plainly: K63-linked diubiquitin cleavage assay, USP46/UAF1. The assay is classed as biochemical.
Assay [9] concerns Ub-FANCD2 in HEK293T cells. Put plainly: Western blot of Ub-FANCD2 level in cells. The assay is classed as cell-based, human. For orientation: A western blot detects proteins with antibodies after separation by electrophoresis.
For assay [10], the system named is Ub-PCNA in HEK293T cells. Put plainly: Western blot of Ub-PCNA level in cells. Type of assay: cell-based, human.

Several values for one entry are separate records, joined by “and”; a condition that tells them apart may be missing. Identical values can stand only once.

USP1/UAF1 (Homo sapiens, UniProt O94782), sequence (O94782 whole entry): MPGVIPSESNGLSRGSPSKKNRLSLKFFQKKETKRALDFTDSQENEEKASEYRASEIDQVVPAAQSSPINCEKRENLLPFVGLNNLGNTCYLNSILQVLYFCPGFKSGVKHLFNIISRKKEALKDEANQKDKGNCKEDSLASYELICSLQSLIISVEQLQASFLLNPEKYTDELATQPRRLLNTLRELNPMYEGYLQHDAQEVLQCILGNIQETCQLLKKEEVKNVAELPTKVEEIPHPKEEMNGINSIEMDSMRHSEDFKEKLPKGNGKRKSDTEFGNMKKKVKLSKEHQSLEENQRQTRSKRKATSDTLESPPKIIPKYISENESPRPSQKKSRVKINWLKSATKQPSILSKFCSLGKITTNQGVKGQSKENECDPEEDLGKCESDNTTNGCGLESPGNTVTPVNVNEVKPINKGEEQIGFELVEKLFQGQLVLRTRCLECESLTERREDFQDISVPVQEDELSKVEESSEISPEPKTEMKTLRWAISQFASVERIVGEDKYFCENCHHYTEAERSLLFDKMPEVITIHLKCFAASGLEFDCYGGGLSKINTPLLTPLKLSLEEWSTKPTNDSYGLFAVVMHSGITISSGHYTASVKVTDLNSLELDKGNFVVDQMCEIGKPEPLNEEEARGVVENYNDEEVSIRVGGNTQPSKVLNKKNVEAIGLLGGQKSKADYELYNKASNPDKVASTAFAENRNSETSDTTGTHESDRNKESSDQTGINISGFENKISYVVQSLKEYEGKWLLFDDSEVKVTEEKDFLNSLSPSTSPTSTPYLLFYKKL
USP1/UAF1 (Homo sapiens, UniProt O94782), sequence (Q8TAF3 whole entry, further chain): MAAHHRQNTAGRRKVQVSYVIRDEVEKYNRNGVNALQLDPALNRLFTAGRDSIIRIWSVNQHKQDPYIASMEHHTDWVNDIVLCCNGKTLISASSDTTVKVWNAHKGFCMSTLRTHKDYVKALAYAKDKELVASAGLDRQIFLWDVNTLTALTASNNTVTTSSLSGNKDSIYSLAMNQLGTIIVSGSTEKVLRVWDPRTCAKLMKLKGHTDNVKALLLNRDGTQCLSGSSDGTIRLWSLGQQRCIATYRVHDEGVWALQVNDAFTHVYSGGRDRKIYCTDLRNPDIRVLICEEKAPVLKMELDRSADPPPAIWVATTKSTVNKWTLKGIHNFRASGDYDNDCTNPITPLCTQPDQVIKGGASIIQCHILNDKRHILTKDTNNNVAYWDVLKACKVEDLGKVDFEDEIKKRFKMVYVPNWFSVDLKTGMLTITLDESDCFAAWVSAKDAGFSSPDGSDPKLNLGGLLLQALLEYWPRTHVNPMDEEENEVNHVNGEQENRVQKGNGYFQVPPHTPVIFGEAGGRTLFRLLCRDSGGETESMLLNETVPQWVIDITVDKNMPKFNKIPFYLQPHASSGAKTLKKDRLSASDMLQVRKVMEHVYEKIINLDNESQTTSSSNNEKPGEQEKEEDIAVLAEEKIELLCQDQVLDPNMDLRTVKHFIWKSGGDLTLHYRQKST
USP46/UAF1, sequence (P62068 whole entry): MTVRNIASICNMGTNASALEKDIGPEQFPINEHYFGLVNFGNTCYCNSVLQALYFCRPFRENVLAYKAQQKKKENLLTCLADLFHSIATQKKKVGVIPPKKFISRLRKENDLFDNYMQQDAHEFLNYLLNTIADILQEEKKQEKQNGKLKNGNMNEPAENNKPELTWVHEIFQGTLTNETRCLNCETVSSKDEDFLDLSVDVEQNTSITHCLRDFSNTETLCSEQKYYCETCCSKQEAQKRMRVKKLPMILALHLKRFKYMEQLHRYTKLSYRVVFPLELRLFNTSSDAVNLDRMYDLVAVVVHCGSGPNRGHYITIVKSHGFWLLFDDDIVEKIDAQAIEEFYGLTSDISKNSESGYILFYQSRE
USP46/UAF1, sequence (Q8TAF3 whole entry partner): as the sequence (Q8TAF3 whole entry, further chain) above
USP1/UAF1 (Homo sapiens, UniProt O94782+Q8TAF3), sequence (O94782 whole entry): as the sequence (O94782 whole entry) above
USP1/UAF1 (Homo sapiens, UniProt O94782+Q8TAF3), sequence (Q8TAF3 whole entry): as the sequence (Q8TAF3 whole entry, further chain) above

The term IC50 denotes the concentration that gives 50% inhibition. A lower IC50 goes with greater potency in that assay. For the compound `CC(=O)c1c(O)c(C)c(O)c(Cc2c(O)c3c(c(C(=O)/C=C/c4ccccc4)c2O)OC(C)(C)C=C3)c1O` [Rottlerin, rottlerin], the IC50 in [1] was 5 to 45 µM; in assay [2], ≤ 8 µM and 6 to 34 µM; in assay [4], more than 114 µM; in assay [5], 5 to 45 µM; in assay [6], 5 to 45 µM; in [7], 5 to 45 µM. This compound also gave an IC50 in assay [8] of 15 ± 1 µM. Also, the reversibility of inhibition entry in assay [3] is “irreversible inhibitor”.
`N.N.[Cl][Pt][Cl]` [Cisplatin, cisplatin]: the “percentage of FANCD2 monoubiquitinated” value in assay [9] is “approximately 25%”. The “monoubiquitination of PCNA, single agent” value in assay [10] is “a small, but significant, percent of Ub-PCNA was detected”.
